In US20230285598A1, “SULFOXONIUM YLIDE DERIVATIVES AS PROBES FOR CYSTEINE PROTEASE” (Takeda Pharmaceutical Company Limited, priority 2018, published 2023):

Legend:
cathepsin X [1] = biological target: T1, cathepsin X (Mus musculus, UniProt Q9WUU7); assay: Probe labeling of kidney lysates, in-gel fluorescence; assay type: biochemical; conditions: 0.1-5 µM for 20 minutes
Procedure: issues were harvested from healthy mice and snap frozen. At the time of analysis, lysis buffer was added at 10x volume:weight, and tissues were sonicated on ice. Cleared lysates were labeled with the indicated probe and analyzed as above.
In Example 7, sulfoxonium ylide probes as prepared in accordance with Example 1 were tested in kidney lysates and the results compared to BMV109. The sulfoxonium ylide probes (and BMV109) were each added with increasing probe concentrations of 0.1 µM, 0.5 µM, 1 µM and 5 µM for 20 minutes.

cathepsin X [2] = biological target: T1, cathepsin X; assay: Probe labeling of RAW264.7 cell lysates, SDS-PAGE in-gel fluorescence; assay type: biochemical; set-up: protein lysates prepared from RAW264.7 cells; host or cells: RAW264.7; conditions: Example 6; 0.01-5 µM for 20 minutes
Procedure: ells were harvested by scraping, washed once with PBS, and resuspended in lysis buffer containing 50 mM citrate [pH 5.5], 0.5% CHAPS, 0.1% Triton X-100, and 4 mM DTT. Cells were incubated on ice for at least 10 minutes with intermittent vortexing followed by centrifugation ([…] at 4° C. or 5 minutes). Cleared supernatants were then transferred to a fresh tube and protein concentration was determined by BCA. Total protein (50 µg) was aliquoted into tubes in a final volume of 20 µl lysis buffer. Where indicated, JPM-OEt or MDV-590 were added from a 100x DMSO stock and incubated at 37° C. or 20 minutes prior to probe addition. The indicated concentration of probe was added from a 100x DMSO stock. Labeling was carried out at 37° C. or 20 minutes (unless otherwise indicated), and the reactions were quenched by the addition of 5x sample buffer (200 mM Tris-Cl [pH 6.8], 8% SDS, 0.04% bromophenol blue, 5% b-mercaptoethanol, and 40% glycerol). Samples were then boiled for five minutes and proteins were resolved on a 15% SDS-PAGE gel. The gels were scanned on a Typhoon 5 flatbed laser scanner at 633/670 nm excitation/emission to detect sCy5 fluorescence.
robe-labeled lysate from above (in sample buffer) was divided into input or pulldown (~50 µg total protein each). The input sample was stored at -20° C. The pulldown sample was diluted in 500 µl IP buffer (PBS [pH 7.4],[…], 1 mM EDTA). Goat anti-cathepsin X antibody (10 µl) was added along with 40 µl slurry of pre-washed Protein A/G agarose beads. Samples were rotated overnight at 4° C. Beads were then washed four times with IP buffer followed by a final wash in 0.9% NaCl. Beads were then resuspended in 2x sample buffer and boiled. The pulldown supernatants, alongside the input samples, were analysed by fluorescent SDS-PAGE as above.
In Example 3, the sulfoxonium ylide probe sCy5-Val-SY was incubated with protein lysates prepared from RAW264.7 cells, an immortalized mouse macrophage line that contains high levels of active cysteine cathepsins (Verdoes et al., 2013). Cells were lysed in citrate buffer (pH 5.5) to provide optimal conditions for cathepsin activation, and the probe was added • at 1 µM for 20 minutes • at various concentrations (0 µM, 0.01 µM, 0.05 µM, 0.1 µM, 0.5 µM or 1 µM) for 20 minutes; or • at 1 µM for varying times (0, 1, 2, 5, 10, 20, and 30 minutes).
Then the lysates were resolved by SDS-PAGE and the gel scanned for sCy5 fluorescence using a flatbed laser scanner.
The labeling profile of sCy5-Val-SY was compared to that of BMV109, the pan-cathepsin probe, by repeating the above experiment using BMV109 as the probe added at 1 µM for 20 minutes.
In Example 6, a small library of sulfoxonium ylide probes with varying amino acids in the P1 position as prepared in accordance with Example 1 was tested in RAW264.7 lysates, and compared to BMV109. Each probe was added with increasing probe concentrations of 0.01 µM, 0.05 µM, 0.1 µM, 0.5 µM, 1 µM and 5 µM for 20 minutes).

cathepsin X [3] = biological target: T1, cathepsin X; assay: Probe labeling of living RAW264.7 cells, in-gel fluorescence; assay type: cell-based; set-up: protein lysates prepared from RAW264.7 cells; host or cells: RAW264.7; conditions: Example 8; 0.1-5 µM for 2 hours
Procedure: AW cells or MDA-MB-231 ^HM cells were plated in 12-well plates. Where indicated, MDV-590 or vehicle was added at 10 µM from a 10 mM DMSO stock for overnight incubation. When the cell density reached 80%, the indicated probes were added at the indicated concentrations from a 1000x DMSO stock and allowed to incubate for the indicated time. Media was then removed and replaced with PBS. The cells were then scraped and transferred to tubes, and lysis and SDS-PAGE analysis were carried out as above, except skipping the probe addition step. […]
In Example 8, sulfoxonium ylide probes as prepared in accordance with Example 1 were applied to live RAW264.7 cells for two hours, in order to examine the potency and permeability of the sulfoxonium ylide probe series in living cells, and the results compared to BMV109.
The sulfoxonium ylide probes (and BMV109) were each added with increasing probe concentrations of 0.1 µM, 0.5 µM, 1 µM and 5 µM for 2 hours. […]

cathepsin X [4] = biological target: cathepsin X (Homo sapiens, UniProt Q9UBR2); assay: Labeling of human oral squamous cell carcinoma tissue lysates, in-gel fluorescence; assay type: biochemical; set-up: Tissues were lysed by sonication in citrate buffer and supernatants were cleared by centrifugation; from tissue; host or cells: human oral squamous cell carcinoma biopsies and patient-matched normal oral mucosa; conditions: °C5 µM for 20 minutes; 80 µg protein
Sequence of cathepsin X (Homo sapiens, UniProt Q9UBR2) (Q9UBR2 62-303): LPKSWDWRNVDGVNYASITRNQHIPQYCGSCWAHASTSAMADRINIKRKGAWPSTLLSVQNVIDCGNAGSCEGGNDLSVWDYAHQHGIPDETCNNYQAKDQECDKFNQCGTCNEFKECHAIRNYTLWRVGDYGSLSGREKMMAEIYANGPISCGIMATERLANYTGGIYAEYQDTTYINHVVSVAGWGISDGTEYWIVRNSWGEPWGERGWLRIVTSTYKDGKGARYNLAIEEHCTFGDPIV
From the text: To investigate the ability of sCy5-,Nle-SY to label cathepsin X in human tissues, biopsies that were obtained from patients with oral squamous cell carcinoma were used. Normal oral mucosal tissues that were biopsied from the contralateral side of the tongues of the same patients were used as controls.
The human oral squamous cell carcinomas or patient-matched normal oral mucosa were biopsied according to protocols approved by the Institutional Review Board at the New York University Oral Cancer Centre. Biopsies were immediately snap-frozen and stored at -80° C. Tissues were lysed by sonication in citrate buffer and supernatants were cleared by centrifugation. Total protein concentration was assessed by BCA assay and 80 µg were labelled with Cy5-Nle-SY: The lysates prepared from the oral squamous cell carcinoma tissue or patient-matched normal oral mucosa were incubated with sCy5-Nle-SY (°C5 µM for 20 minutes) and labeling was analyzed by in-gel fluorescence (fluorescent SDS-PAGE). Samples were also immunoblotted to determine total cathepsin X expression (n=10). Additionally, the sCy5-Nle-SY-labeled cancer lysates were immunoprecipitated with a cathepsin X-specific antibody to verify the identity of the labeled protein.

T1 sequence (Q9WUU7 64-306): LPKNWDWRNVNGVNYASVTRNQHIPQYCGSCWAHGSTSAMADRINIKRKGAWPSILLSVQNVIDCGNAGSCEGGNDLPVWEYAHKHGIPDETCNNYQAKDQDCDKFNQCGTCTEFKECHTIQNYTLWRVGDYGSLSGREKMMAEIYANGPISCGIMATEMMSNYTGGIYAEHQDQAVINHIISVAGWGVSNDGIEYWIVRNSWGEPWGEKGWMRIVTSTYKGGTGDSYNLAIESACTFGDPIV

potency of labeling in RAW264.7 lysates (cathepsin X [2]): the most potent
Structure (SMILES): CCCC[C@H](NC(=O)CCCCCN1/C(=C/C=C/C=C/C2=[N+](CC)c3ccc(S(=O)(=O)[O-])cc3C2(C)C)C(C)(C)c2cc(S(=O)(=O)O)ccc21)C(=O)C=S(C)(C)=O [sCy5-Nle-SY]
potency and specificity of labeling in kidney lysates (cathepsin X [1]): the most potency and specificity for cathepsin X
cathepsins labeled in live RAW264.7 cells (cathepsin X [3]): labeled cathepsin X and S to similar extents and with similar potency
labeling of cathepsin X in human oral squamous cell carcinoma lysates (cathepsin X [4]): clear and selective labeling of cathepsin X was observed
